Data on two molecules can be found in ChEMBL document CHEMBL3232987, “Investigation of Ugi-4CC derived 1H-tetrazol-5-yl-(aryl) methyl piperazinyl-6-fluoro-4-oxo-1,4-dihydroquinoline-3-carboxylic acid: synthesis, biology and 3D-QSAR analysis” (Eur J Med Chem, 2014).

Data set [1] concerns Staphylococcus aureus. The experiment in a line: Antibacterial activity against methicillin-resistant Staphylococcus aureus ATCC 700699 after 24 hrs by spectrophotometric analysis. It counts as functional, organism-based. The note with it: Staphylococcus aureus, ATCC 700699, 24 h; for IC50: read-out: IC50.
The test system of data set [2] is Staphylococcus aureus. Put plainly: Antibacterial activity against Staphylococcus aureus ATCC 25923 by NCCLS two-fold dilution method. It counts as functional. The note with it: for MIC: Staphylococcus aureus, ATCC 25923.
The test system of data set [3] is Staphylococcus aureus. Put plainly: Antibacterial activity against gentamicin-resistant Staphylococcus aureus ATCC 33592 by NCCLS two-fold dilution method. It counts as functional.
The test system of data set [4] is L929. Put plainly: Cytotoxicity against mouse L929 cells assessed as cell morphological changes at 12.5 to 50 ug/ml after 24 hrs by giemsa staining based phase contrast microscopy. The note with it: l929, 24 h.
The test system of data set [5] is Staphylococcus aureus. The experiment in a line: Antibacterial activity against Staphylococcus aureus ATCC 29213 by NCCLS two-fold dilution method. It counts as functional.
The subject of data set [6] is Klebsiella pneumoniae. Put plainly: Antibacterial activity against Klebsiella pneumoniae by NCCLS two-fold dilution method. It counts as functional.
The subject of data set [7] is Klebsiella pneumoniae. Put plainly: Antibacterial activity against Klebsiella pneumoniae after 24 hrs by spectrophotometric analysis. It counts as functional, organism-based. The note with it: Klebsiella pneumoniae, 24 h; for IC50: read-out: IC50.
For data set [8], the system named is Staphylococcus aureus. The experiment in a line: Antibacterial activity against methicillin-resistant Staphylococcus aureus ATCC 700699 by NCCLS two-fold dilution method. It counts as functional.
The subject of data set [9] is Escherichia coli. The experiment in a line: Antibacterial activity against Escherichia coli after 24 hrs by spectrophotometric analysis. It counts as functional, organism-based. The note with it: Escherichia coli, 24 h; for IC50: read-out: IC50.
Data set [10] has as its system L929. The experiment in a line: Cytotoxicity against mouse L929 cells assessed as cell viability up to MIC 0.39 ug/ml after 24 hrs by MTT assay. The note with it: l929, 24 h. It counts as cell-based. For orientation: Tetrazolium assays rely on reduction of a dye to a coloured formazan, in cell work by metabolically active cells.
For data set [11], the system named is Staphylococcus aureus. Put plainly: Antibacterial activity against Staphylococcus aureus ATCC 25923 after 24 hrs by spectrophotometric analysis. The note with it: Staphylococcus aureus, ATCC 25923, 24 h; for IC50: read-out: IC50. It counts as functional, organism-based.
Data set [12] deals with Staphylococcus aureus. Put plainly: Antibacterial activity against Staphylococcus aureus ATCC 29213 after 24 hrs by spectrophotometric analysis. It counts as functional, organism-based. The note with it: Staphylococcus aureus, ATCC 29213, 24 h; for IC50: read-out: IC50.
The test system of data set [13] is Staphylococcus aureus. The experiment in a line: Antibacterial activity against gentamicin-resistant Staphylococcus aureus ATCC 33592 after 24 hrs by spectrophotometric analysis. The note with it: Staphylococcus aureus, ATCC 33592, 24 h; for IC50: read-out: IC50. It counts as functional, organism-based.
In data set [14] the test system is Escherichia coli. The experiment in a line: Antibacterial activity against Escherichia coli by NCCLS two-fold dilution method. It counts as functional.
Data set [15] relates to L929. Put plainly: Cytotoxicity against mouse L929 cells assessed as cell viability up to MIC 0.78 ug/ml after 24 hrs by MTT assay. It counts as cell-based. The note with it: l929, 24 h.

Values after ≈ are worked out from the molar mass of the structure shown.

In general, MIC refers to the lowest concentration found to suppress growth. Usually IC50 stands for the concentration that inhibits the measured activity by half. Consider `CCn1cc(C(=O)O)c(=O)c2cc(F)c(N3CCN(C(c4ccco4)c4nnnn4C4CCCCC4)CC3)cc21` (configuration not stated), for which the MIC was determined as 8.2 µg/mL (≈ 14.9 µM) with Staphylococcus aureus [1]; 0.78 µg/mL (≈ 1.42 µM) with Staphylococcus aureus [2]; 0.78 µg/mL (≈ 1.42 µM) in the data set with Staphylococcus aureus [3]; 1.56 µg/mL (≈ 2.84 µM) in the data set with Staphylococcus aureus [5]; 6.25 µg/mL (≈ 11.4 µM) against Klebsiella pneumoniae [6]; 5.2 µg/mL (≈ 9.46 µM) in the data set with Klebsiella pneumoniae [7]. Further, the MIC is 25 µg/mL (≈ 45.5 µM) in the data set with Staphylococcus aureus [8]; 11.6 µg/mL (≈ 21.1 µM) in the data set with Escherichia coli [9]; 0.45 µg/mL (≈ 0.819 µM) in the data set on Staphylococcus aureus [11]; 1.1 µg/mL (≈ 2 µM) against Staphylococcus aureus [12]; 0.88 µg/mL (≈ 1.6 µM) in the data set on Staphylococcus aureus [13]; 12.5 µg/mL (≈ 22.7 µM) with Escherichia coli [14]. The IC50 is 3.7 µg/mL (≈ 6.73 µM) in the data set with Staphylococcus aureus [1]; 2.4 µg/mL (≈ 4.37 µM) in the data set on Klebsiella pneumoniae [7]; 4.9 µg/mL (≈ 8.92 µM) with Escherichia coli [9]; 0.22 µg/mL (≈ 0.4 µM) with Staphylococcus aureus [11]; 0.6 µg/mL (≈ 1.09 µM) with Staphylococcus aureus [12]; 0.4 µg/mL (≈ 0.728 µM) in the data set with Staphylococcus aureus [13]. Further, the “-logMIC” value in the data set with Staphylococcus aureus [2] was 5.847. In addition, the Activity result in the data set on L929 [4] and in the data set with L929 [10] was “Non-toxic” in each case.
Turning to `CCn1cc(C(=O)O)c(=O)c2cc(F)c(N3CCN(C(c4ccco4)c4nnnn4C(C)(C)C)CC3)cc21` (configuration not stated), the MIC came to 46.9 µg/mL (≈ 89.6 µM) with Staphylococcus aureus [1]; 0.78 µg/mL (≈ 1.49 µM) in the data set with Staphylococcus aureus [2]; 0.78 µg/mL (≈ 1.49 µM) in the data set with Staphylococcus aureus [3]; 0.78 µg/mL (≈ 1.49 µM) in the data set with Staphylococcus aureus [5]; 12.5 µg/mL (≈ 23.9 µM) against Klebsiella pneumoniae [6]; 10.1 µg/mL (≈ 19.3 µM) against Klebsiella pneumoniae [7]. In addition, the MIC against Staphylococcus aureus [8] amounted to 50 µg/mL (≈ 95.5 µM); in the data set with Escherichia coli [9], 4.2 µg/mL (≈ 8.02 µM); against Staphylococcus aureus [11], 0.4 µg/mL (≈ 0.764 µM); against Staphylococcus aureus [12], 0.6 µg/mL (≈ 1.15 µM); in the data set with Staphylococcus aureus [13], 0.5 µg/mL (≈ 0.955 µM); with Escherichia coli [14], 6.25 µg/mL (≈ 11.9 µM). For the same molecule, the IC50 was 24.6 µg/mL (≈ 47 µM) with Staphylococcus aureus [1]; 5.3 µg/mL (≈ 10.1 µM) in the data set with Klebsiella pneumoniae [7]; 2.9 µg/mL (≈ 5.54 µM) in the data set with Escherichia coli [9]; 0.3 µg/mL (≈ 0.573 µM) in the data set on Staphylococcus aureus [11]; 0.2 µg/mL (≈ 0.382 µM) in the data set with Staphylococcus aureus [12]; 0.2 µg/mL (≈ 0.382 µM) with Staphylococcus aureus [13]. The Activity entry in the data set with L929 [4], in the data set on L929 [15] and with L929 [10] was “Non-toxic” each time.
